For 36 compounds, IC50 results are on record in patent US8492589B2, “Alkynyl phenyl derivative compounds for treating ophthalmic diseases and disorders” (Acucela Inc., priority 2007, dated 2013).

In the assay the target is T1, visual cycle isomerase (Bovine RPE microsome membranes) (Bos taurus, UniProt Q28175).
T1 construct: Bovine Retinal Pigment Epithelium (RPE) microsome membranes were the source of a visual cycle isomerase; from tissue; host or cells: bovine retinal pigment epithelium microsome membranes
T1 sequence (Q28175 2-533 limits assumed): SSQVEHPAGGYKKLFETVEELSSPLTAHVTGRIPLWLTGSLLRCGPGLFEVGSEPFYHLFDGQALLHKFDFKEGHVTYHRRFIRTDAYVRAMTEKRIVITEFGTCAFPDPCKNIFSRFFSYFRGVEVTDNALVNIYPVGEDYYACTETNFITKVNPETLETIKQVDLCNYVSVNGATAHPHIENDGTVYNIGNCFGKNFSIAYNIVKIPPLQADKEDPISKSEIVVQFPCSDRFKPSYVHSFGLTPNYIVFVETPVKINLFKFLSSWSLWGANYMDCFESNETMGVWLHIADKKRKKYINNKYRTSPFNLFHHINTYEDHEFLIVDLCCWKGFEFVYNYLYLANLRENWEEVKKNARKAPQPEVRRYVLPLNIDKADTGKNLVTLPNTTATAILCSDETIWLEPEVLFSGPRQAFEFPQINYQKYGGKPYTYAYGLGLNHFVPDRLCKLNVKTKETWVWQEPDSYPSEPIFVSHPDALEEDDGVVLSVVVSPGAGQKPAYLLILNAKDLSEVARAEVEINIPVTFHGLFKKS
The experiment in a line: In vitro isomerase inhibition assay, bovine RPE microsome membranes. Format: biochemical. The conditions noted are these: bovine RPE microsomes; 11-cis retinol formation. As to the method:
The capability of alkynyl phenyl-linked amine derivative compounds to inhibit the activity of a visual cycle isomerase was determined.
Bovine Retinal Pigment Epithelium (RPE) microsome membranes were the source of a visual cycle isomerase.
Crude RPE microsome extracts were thawed in a 37° C. water bath, and then immediately placed on ice. 50 ml crude RPE microsomes were placed into a 50 ml Teflon-glass homogenizer (Fisher Scientific, catalog no. 0841416M) on ice, powered by a hand-held DeWalt drill, and homogenized ten times up and down on ice under maximum speed. This process was repeated until the crude RPE microsome solution was homogenized. The homogenate was then subjected to centrifugation (50.2 Ti rotor (Beckman, Fullerton, Calif.), 13,000 RPM; 15360 Rcf) for 15 minutes at 4° C. The supernatant was collected and subjected to centrifugation at 42,000 RPM (160,000 Rcf; 50.2 Ti rotor) for 1 hour at 4° C. The supernatant was removed, and the pellets were suspended in 12 ml (final volume) cold 10 mM MOPS buffer, pH 7.0. The resuspended RPE membranes in 5 ml aliquots were homogenized in a glass-to-glass homogenizer (Fisher Scientific, catalog no. K885500-0021) to high homogeneity. Protein concentration was quantified using the BCA protein assay according to the manufacturer's protocol (Pierce, Rockford, Ill.). The homogenized RPE preparations were stored at −80° C.
Recombinant human apo cellular retinaldehyde-binding protein (CRALBP) was cloned and expressed according to standard methods in the molecular biology art (see Crabb et al., Protein Science 7:746-57 (1998); Crabb et al., J. Biol. Chem. 263:18688-92 (1988)). Briefly, total RNA was prepared from confluent ARPE19 cells (American Type Culture Collection, Manassas, Va.), cDNA was synthesized using an oligo(dT)12-18 primer, and then DNA encoding CRALBP was amplified by two sequential polymerase chain reactions (see Crabb et al., J. Biol. Chem. 263:18688-92 (1988); Intres, et al., J. Biol. Chem. 269:25411-18 (1994); GenBank Accession No. L34219.1). The PCR product was sub-cloned into pTrcHis2-TOPO TA vector according to the manufacturer's protocol (Invitrogen Inc., Carlsbad, Calif.; catalog no. K4400-01), and then the sequence was confirmed according to standard nucleotide sequencing techniques. Recombinant 6×His-tagged human CRALBP was expressed in One Shot TOP 10 chemically competent E. coli cells (Invitrogen), and the recombinant polypeptide was isolated from E. coli cell lysates by nickel affinity chromatography using nickel (Ni) Sepharose XK16-20 columns for HPLC (Amersham Bioscience, Pittsburgh, Pa.; catalog no. 17-5268-02). The purified 6×His-tagged human CRALBP was dialyzed against 10 mM bis-tris-Propane (BTP) and analyzed by SDS-PAGE. The molecular weight of the recombinant human CRALBP was approximately 39 kDal.
Alkkynyl phenyl-linked amine derivative compounds and control compounds were reconstituted in ethanol to 0.1 M. Ten-fold serial dilutions (10^−2, 10^−3, 10^−4, 10^−5, 10^−6 M) in ethanol of each compound were prepared for analysis in the isomerase assay.
The isomerase assay was performed in 10 mM bis-tris-propane (BTP) buffer, pH 7.5, 0.5% BSA (diluted in BTP buffer), 1 mM sodium pyrophosphate, 20 μM all-trans retinol (in ethanol), and 6 μM apo-CRALBP. The test compounds (2 μl) (final […] dilution of serial dilution stocks) were added to the above reaction mixture to which RPE microsomes were added. The same volume of ethanol was added to the control reaction (absence of test compound). Bovine RPE microsomes (9 μl) (see above) were then added, and the mixtures transferred to 37° C. to initiate the reaction (total volume=150 μl). The reactions were stopped after 30 minutes by adding methanol (300 μl). Heptane was added (300 μl) and mixed into the reaction mixture by pipetting. Retinoid was extracted by agitating the reaction mixtures, followed by centrifugation in a microcentrifuge. […]
What is called IC50 is the point on the concentration scale where inhibition reaches its midpoint. In turn, `CCCC(O)(C#Cc1cccc([C@H](O)CCN)c1)CCC` [Compound 100, (R)-4-((3-(3-Amino-1-Hydroxypropyl)Phenyl)Ethynyl)Heptan-4-ol] came in with an IC50 of at most 1 µM.
With `CCCC(O)(C#Cc1cccc([C@@H](O)CCN)c1)CCC` [Compound 101, (S)-4-((3-(3-Amino-1-Hydroxypropyl)Phenyl)Ethynyl)Heptan-4-ol], the IC50 is at most 1 µM.
`CCC(O)(C#Cc1cccc(CCCN)c1)CC` [Example 1, 1-(3-(3-Aminopropyl)phenyl)-3-ethylpent-1-yn-3-ol]: the IC50 is at most 1 µM.
In turn, `CCCC(O)(C#Cc1cccc(CCCN)c1)CCC` [Example 2, 4-((3-(3-Aminopropyl)phenyl)ethynyl)heptan-4-ol] yielded an IC50 of at most 1 µM.
The value for `CCCC(C#Cc1cccc(CCCN)c1)(CCC)OC` [Example 4, 3-(3-(3-Methoxy-3-propylhex-1-ynyl)phenyl)propan-1-amine] was at most 1 µM; that for `CC(C)(O)C#Cc1cccc(CCCN)c1` [Example 7, 4-(3-(3-Aminopropyl)phenyl)-2-methylbut-3-yn-2-ol] was at most 1 µM; that for `CCCC(O)C#Cc1cccc(CCCN)c1` (stereo not drawn) [Example 8, 1-(3-(3-Aminopropyl)phenyl)hex-1-yn-3-ol] was at most 1 µM.
For the compound `NCCCc1cccc(C#CC2(O)CCCCC2)c1` [Example 11, 1-((3-(3-Aminopropyl)phenyl)ethynyl)cyclohexanol], the IC50 is at most 1 µM.
Take `CCCC(O)(C#Cc1cccc(OCCN)c1)CCC` [Example 18, 4-((3-(2-Aminoethoxy)phenyl)ethynyl)heptan-4-ol]: the IC50 was at most 1 µM.
The figure for `CCCC(O)(C#Cc1cccc(C(O)CCN)c1)CCC` (stereo not drawn) [Example 19, 4-((3-(3-Amino-1-hydroxypropyl)phenyl)ethynyl)heptan-4-ol] is at most 1 µM; for `NCCCc1cccc(C#CC2(O)CCCC2)c1` [Example 24, 1-((3-(3-Aminopropyl)phenyl)ethynyl)cyclopentanol] it is at most 1 µM.
For `CC(C)(C)C(C)(O)C#Cc1cccc(CCCN)c1` (stereo not drawn) [Example 25, 1-(3-(3-Aminopropyl)phenyl)-3,4,4-trimethylpent-1-yn-3-ol], the IC50 is at most 1 µM.
The compound `NCCCc1cccc(C#C[C@@H](O)c2ccccc2)c1` [Example 26, (S)-3-(3-(3-Aminopropyl)phenyl)-1-phenylprop-2-yn-1-ol] yielded an IC50 of at most 10 µM.
The compound `CCC(O)(C#Cc1cccc(OCCN)c1)CC` [Example 27, 1-(3-(2-Aminoethoxy)phenyl)-3-ethylpent-1-yn-3-ol] came in with an IC50 of at most 1 µM.
The figure for `CC(C)C(O)(C#Cc1cccc(OCCN)c1)C(C)C` [Example 28, 1-(3-(2-Aminoethoxy)phenyl)-3-isopropyl-4-methylpent-1-yn-3-ol] is at most 1 µM; for `NCCOc1cccc(C#CC2(O)CCCC2)c1` [Example 31, 1-((3-(2-Aminoethoxy)phenyl)ethynyl)cyclopentanol] it is at most 1 µM; for `CC(C)C(O)(C#Cc1cccc(CCCN)c1)C(C)C` [Example 32, 1-(3-(3-Aminopropyl)phenyl)-3-isopropyl-4-methylpent-1-yn-3-ol] it is at most 1 µM.
The compound `COc1ccccc1C#Cc1cccc(CCCN)c1` [Example 36, 3-(3-((2-Methoxyphenyl)Ethynyl)Phenyl)Propan-1-Amine] registered an IC50 of at most 1 µM.
Consider `NCCCc1cccc(C#Cc2ccccc2)c1` [Example 37, 3-(3-(Phenylethynyl)phenyl)propan-1-amine], for which the IC50 is at most 1 µM.
The value for `NCCCc1cccc(C#CC2CCCC2)c1` [Example 38, 3-(3-(Cyclopentylethynyl)phenyl)propan-1-amine] was at most 1 µM.
In turn, `NCCC(O)c1cccc(C#CC2CCCC2)c1` (stereo not drawn) [Example 47, 3-Amino-1-(3-(cyclopentylethynyl)phenyl)propan-1-ol] gave an IC50 of at most 1 µM.
With `NCCC(O)c1cccc(C#CCCCCO)c1` (stereo not drawn) [Example 50, 6-(3-(3-Amino-1-hydroxypropyl)phenyl)hex-5-yn-1-ol], the IC50 was at most 1 µM.
As to `NCCC(O)c1cccc(C#CCCO)c1` (stereo not drawn) [Example 51, 4-(3-(3-Amino-1-hydroxypropyl)phenyl)but-3-yn-1-ol], the IC50 was at most 1 µM.
`NCCC(O)c1cccc(C#CC2CCCCC2)c1` (stereo not drawn) [Example 52, 3-Amino-1-(3-(Cyclohexylethynyl)Phenyl)Propan-1-ol] registered an IC50 of at most 1 µM.
For the compound `COc1ccccc1C#Cc1cccc(C(O)CCN)c1` (stereo not drawn) [Example 54, 3-Amino-1-(3-((2-Methoxyphenyl)Ethynyl)Phenyl)Propan-1-ol], the IC50 is at most 1 µM.
`NCCOc1cccc(C#CC2(O)CCSCC2)c1` [Example 55, 4-((3-(2-Aminoethoxy)Phenyl)Ethynyl)Tetrahydro-2H-Thiopyran-4-ol] gave an IC50 of at most 1 µM.
With `NCCOc1cccc(C#CC2(O)CCCCC2)c1` [Example 57, 1-((3-(2-Aminoethoxy)phenyl)ethynyl)cyclohexanol], the IC50 is at most 1 µM.
`NCCC(O)c1cccc(C#CC2(O)CCCCCC2)c1` (stereo not drawn) [Example 59, 1-((3-(3-Amino-1-hydroxypropyl)phenyl)ethynyl)cycloheptanol] registered an IC50 of at most 1 µM.
Compound `CC(=O)NCCCc1cccc(C#CC2(O)CCCCC2)c1` [Example 60, N-(3-(3-((1-Hydroxycyclohexyl)Ethynyl)Phenyl)Propyl)Acetamide] registered an IC50 of at most 10 µM.
`NCCCc1cccc(C#Cc2ccccn2)c1` [Example 61, 3-(3-(Pyridin-2-ylethynyl)phenyl)propan-1-amine] had an IC50 of at most 1 µM.
The value for `NCCOc1cccc(C#Cc2cccnc2)c1` [Example 62, 2-(3-(Pyridin-3-ylethynyl)phenoxy)ethanamine] was at most 10 µM.
`NCCCc1cccc(C#Cc2ccncc2)c1` [Example 63, 3-(3-(Pyridin-4-ylethynyl)phenyl)propan-1-amine] yielded an IC50 of at most 10 µM.
For the compound `NCCC(O)c1cccc(C#CCCc2ccccc2)c1` (stereo not drawn) [Example 69, 3-Amino-1-(3-(4-phenylbut-1-ynyl)phenyl)propan-1-ol], the concentration for half-maximal inhibition (IC50) is at most 1 µM.
The figure for `NCCOc1cccc(C#CCCCCO)c1` [Example 74, 6-(3-(2-Aminoethoxy)phenyl)hex-5-yn-1-ol] is at most 1 µM.
In turn, `NCCOc1cccc(C#CC2(O)CCCCCC2)c1` [Example 78, 1-((3-(2-aminoethoxy)phenyl)ethynyl)-cycloheptanol] showed an IC50 of at most 1 µM.
`NCCOc1cccc(C#CC2CCCC2)c1` [Example 79, 2-(3-(Cyclopentylethynyl)phenoxy)-ethanamine] gave a half-maximal inhibitory concentration (IC50) of at most 1 µM.
